The test system of this test is immortalized human sebocytes derived from the SZ95 line. Description: Lipogenesis in immortalized human sebocytes in culture (SZ95 line), Nile Red fluorescence, total lipids. Conditions: for VARIATION IN LIPIDS (relative to the control): 0.1% DMSO, 24 hours treatment, total lipids, Nile Red. Format: cell-based. As to the method: Resveratrol trimethyl ether was tested on a model of immortalized human sebocytes in culture, derived from the SZ95 line described in Zouboulis, C. C., Seltmann, H., Neitzel, H. & Orfanos, C. E., Establishment and Characterization of an Immortalized Human Sebaceous Gland Cell Line, J. Invest. Dermatol., 113, 1011-1020 (1999).
The test consisted in measuring the amount of lipids produced by the sebocytes of the line (at confluence), in the presence or absence of an active agent diluted in DMSO, at two different concentrations, such that the final amount of DMSO in the culture medium is 0.1% and the amount of resveratrol trimethyl ether is 0.01% (4×10^−4 M) and 0.001% (4×10^−5 M), respectively. After treatment for 24 hours, the adherent cells are treated with Nile Red (1 μg/ml). The lipid content is then quantified by measuring the fluorescence of the dye (two excitation/emission pairs: 485-540 nm for the neutral lipids and 540-620 nm for the non-neutral lipids). The results are given for the total lipids (combination of the two measurements).
The experiment is performed in sextuplicate (products assayed and control) in 96-well plates and repeated four times.

The structures appear in SMILES notation.

For the compound `COc1ccc(C=Cc2cc(OC)cc(OC)c2)cc1` [resveratrol trimethyl ether, Resveratrol trimethyl ether], the “VARIATION IN LIPIDS (relative to the control)” value runs as follows: (0.001% (4×10^−5 M) compound) “+36%”; (0.01% (4×10^−4 M) compound) “+46%”.
In the case of `Oc1ccc(C=Cc2cc(O)cc(O)c2)cc1` [resveratrol], the inhibition of lipogenesis (0.001%, same conditions as resveratrol trimethyl ether (second of 'respectively')) is recorded as 67% and the inhibition of lipogenesis (0.01%, same conditions as resveratrol trimethyl ether (first of 'respectively')) is given as 20%. Further, for the setting “qualitative statement in the description”, the “ability of sebocytes to produce sebum” value is “decreased”.

(Values after patent US20070015840A1, “Use of an alkyl ether of hydroxystilbene for the treatment of dry skin” (L'OREAL, priority 2002, published 2007).)
